We go through 2 compounds from US11254986B2, “Gene signature for immune therapies in cancer” (ALMAC DIAGNOSTICS LIMITED, priority 2015, dated 2022).

Type in all cases: cell-based
Assay [1] concerns CXCL10 and CCL5 expression. As to the kind of experiment: qRT-PCR of chemokine expression after DNA damaging agents, paclitaxel or nocodazole. The settings on record: HeLa, HCC1937 EV and MDA-MB-436 EV cells; IC-50 doses; compared to DMSO control; FIG. 14. The method, then:
Reverse transcription was performed using the First Strand cDNA synthesis kit (Roche). 500 ng of RNA was reverse transcribed according to manufacturer's instructions. Exon-spanning qPCR primers were designed using Roche Universal Probe Library Assay Design Centre and were used at a concentration of 0.5 μM. The following primer sequences were used:
To preform absolute quantification from qPCR, we used a standard curve method. The efficiency of each primer set was derived from the standard curve using the following equation: E=10^(−1/slope)
The product of Reverse Transcription was diluted 1:10 in Nuclease Free Water (NFW). Each 10 μl PCR reaction, consisted of 0.5 μl of 10 μM Forward primer, 0.5 μl of 10 μM Reverse primer, 5 μl of 2× LightCycler® 480 SYBR Green I Master mix (Roche), 1.5 μl NFW and 2.5 μl diluted Reverse Transcription product. These 10 μl reactions were pipetted into wells of a LightCycler® 480 multiwell 96 plate (Roche), the plate was then sealed using clear adhesive film (Roche). The plate was placed into the LightCycler® 480 (Roche) and run with the following protocol. (95° C. for 10 mins, 45 cycles of; 95° C. for 15 secs, 55° C. for 30 secs and 72° C. for 30 secs, finishing with a melt curve for confirmation of primer specificity. All qPCR data was analysed using the LightCycler® 480 software provided by Roche. For analysis, the Cp value from a technical duplicate was calculated and the relative amount of a gene was calculated Cp value to an in-run standard curve. Each mean value was then normalised to the mean concentration of the housekeeping gene PUM1 within the corresponding sample, by dividing the concentration of the target gene by the concentration of the house keeping gene. Relative expression refers to the gene expression levels that have been normalised to the housekeeping gene and made relative to the associated control samples. From these normalized values, the fold changes for each gene were calculated and the average of three individual fold changes were derived from three independent experimental triplicates. The unpaired, two-tailed students T-test available on GraphPad Prism 5.0 software was used to detect statistical significance.
For analysis of effects of ATM, ATR and DNAPK on cytokine expression, cells were seeded in six well plates at ˜60% confluency. Following incubation overnight, small molecule inhibitors of ATM (Ku60019, Selleck Chem) at a dose of 1 μm, ATR (ETP46464, Selleck Chem) at a dose of 5 μm and DNAPK (Nu7441, Selleck Chem) at a dose of 5 μm were added. At 24 hours, RNA and protein samples were obtained for analysis. For analysis of the effects of DNA damaging agents and paclitaxel on cytokine expression, cells were seeded in six well plates at ˜60% confluency. […]
On the technique in general: Real-time PCR tracks product formation cycle by cycle.

The subject of another assay is cytosolic Histone H3. As to the kind of experiment: Western blot of Histone H3 in cytosolic fractions. The note with it: HeLa cells; compared to DMSO control treatment; FIG. 19B. An excerpt:
Adherent cells formed whole cell lysates suspended in RIPA buffer containing phosphatase and protease inhibitors (Roche Inhibitor cocktails, Germany). Lysates were then spun to eliminate cell debris. Protein was quantified using the BCA Assay (Pierce, Rockford, Ill., USA) according to manufacturer's instructions using a plate reader. […] Results were then visualized and recorded using Luminata Crescendo Western HRP substrate (Millipore, UK) and an alpha imager.
Cells were fractionated using Buffer A (10 mM Hepes pH7.4; […] MgCl2, 10 mM NaCl, 0.1% NP-40, Protease and Phosphatase inhibitors) and Buffer C (10 mM Hepes pH7.4; […], 420 mM NaCl, 0.1% NP-40, Protease and Phosphatase inhibitors). […] The supernatant (cytoplasmic fraction) was carefully removed and stored at −80° C. until quantification using the BCA Assay (Pierce, Rockford, Ill., USA) according to manufacturer's instructions using a plate reader. […] Samples were then centrifuged at 12000 rpm for two minutes to remove debris, and supernatant (nuclear fraction) stored at −80° C. until quantification as described above.

The test system of assay [2] is cytosolic DNA in HeLa cells. As to the kind of experiment: PicoGreen fluorescent staining of double-stranded DNA, confocal microscopy. The note with it: IC50 doses, FIG. 19C. The text has this: We probed cytosolic fractions of DDRD positive cells MDA-436-EV and +BRCA1, and HCC1937-EV and +BRCA1 cells for the presence of Histone H3, and found Histone H3 protein expression was increased in the repair deficient lines (EV) (FIG. 19A, top panel of blots). […] PicoGreen fluorescent staining was used to detect double-stranded DNA (ds-DNA). […] This increase in cytosolic DNA was however not observed in response to treatment with Paclitaxel (HeLa+Paclitaxel IC50) (FIG. 19C).

As to `N.N.[Cl][Pt][Cl]` [cisplatin], the “CXCL10 and CCL5 relative expression” value in assay [1] is “upregulation of CXCL10 and CCL5 expression was stimulated in all cell lines”. In addition, the “Histone H3 protein levels in cytosolic fraction” value in the assay on cytosolic Histone H3 is “increased Histone H3 protein levels”. In addition, the “cytosolic DNA (PicoGreen, confocal microscopy)” value in assay [2] is recorded as “increased cytosolic DNA”.
Regarding `NC(=O)NO` [hydroxyurea, Hydroxyurea], the “CXCL10 and CCL5 relative expression” value in assay [1] is “upregulation of CXCL10 and CCL5 expression was stimulated in all cell lines”. Besides, the “Histone H3 protein levels in cytosolic fraction” value in the assay on cytosolic Histone H3 was “increased Histone H3 protein levels”. The “cytosolic DNA (PicoGreen, confocal microscopy)” value in assay [2] is recorded as “increased cytosolic DNA”.
